Assay results taken from ChEMBL document CHEMBL4376834, “Discovery of 4H-Chromen-4-one Derivatives as a New Class of Selective Rho Kinase (ROCK) Inhibitors, which Showed Potent Activity in ex Vivo Diabetic Retinopathy Models” (J Med Chem, 2019).
Converted amounts (≈) assume the structure as drawn.

Legend:
[1] = biological target: Dual specificity mitogen-activated protein kinase kinase 7 (Homo sapiens, UniProt O14733); assay: Inhibition of recombinant human MKK7 (2 to end residues) using inactive JNK1a1 as substrate incubated for 40 mins by radiometric scintillation counting analysis
[2] = biological target: Serine/threonine-protein kinase 38-like (Homo sapiens, UniProt Q9Y2H1); assay: Inhibition of recombinant human NDR2 (83 to end residues) using RSRSRSRSRSRSRSR as substrate measured after 40 mins in presence of [gamma33P]ATP by radiometric scintillation counting analysis
CDK18/Cyclin Y = CDK18/Cyclin Y (Homo sapiens, UniProt Q07002+Q8ND76, T166M); assay: Inhibition of recombinant full length human cyclinY/CDK18 T166M mutant using YRRAAVPPSPSLS as substrate measured after 40 mins in presence of [gamma33P]ATP by radiometric scintillation counting analysis; format: protein-complex assay
[3] = Solubility of compound in miniQ water at 1 mg at 37 degreeC incubated under shaking conditions for overnight by LC-MS analysis; format: physicochemical
[4] = biological target: Platelet-derived growth factor receptor alpha (Homo sapiens, UniProt P16234, V561D); assay: Inhibition of human PDGFRalpha V561D mutant (550 to end residues) using GGMEDIYFEFMGG as substrate measured after 40 mins in presence of [gamma33P]ATP by radiometric scintillation counting analysis
[5] = biological target: Cyclin-dependent kinase 1/cyclin B1 (Homo sapiens, UniProt P06493); assay: Inhibition of recombinant full length human CDK1/CyclinB using Histone H1 as substrate incubated for 40 mins in presence of [gamma-33ATP] by radiometric scintillation counting analysis; format: protein-complex assay
[6] = biological target: Tyrosine-protein kinase SYK (Homo sapiens, UniProt P43405); assay: Inhibition of recombinant human full length SYK using poly(Glu, Tyr) 4:1 as substrate incubated for 40 mins in presence of [gamma33P]ATP by radiometric scintillation counting analysis
[7] = biological target: G protein-coupled receptor kinase 5 (Homo sapiens, UniProt P34947); assay: Inhibition of recombinant full length human GRK5 using casein as substrate after 40 mins in presence of [gamma-33ATP] by radiometric scintillation counting analysis
[8] = Protein binding in rat plasma at 1 uM incubated incubated for 5 hrs under shaking conditions by LC-MS analysis; format: ADME, cell-free; conditions: read-out: PPB (converted)
[9] = biological target: Dual specificity protein kinase CLK4 (Homo sapiens, UniProt Q9HAZ1); assay: Inhibition of recombinant human CLK4 (128 to end residues) using YRRAAVPPSPSLSR as substrate incubated 40 mins in presence of [gamma-33ATP] by radiometric scintillation counting analysis
[10] = biological target: Interferon-induced, double-stranded RNA-activated protein kinase (Homo sapiens, UniProt P19525); assay: Inhibition of recombinant human PKR (252 to end residues) using RSRSRSRSRSRSRS as substrate incubated for 40 mins in presence of [gamma33P]ATP by radiometric scintillation counting analysis
[11] = biological target: RAF proto-oncogene serine/threonine-protein kinase (Homo sapiens, UniProt P04049, Y340D/Y341D); assay: Inhibition of recombinant human C-Raf Y340D/Y341D double mutant (306 to end residues) using poly(Glu, Tyr) 4:1 as substrate incubated 40 mins in presence of [gamma-33ATP] by radiometric scintillation counting analysis
[12] = biological target: Cyclin-dependent kinase-like 2 (Homo sapiens, UniProt Q92772); assay: Inhibition of recombinant full length human CDKL2 in presence of 10 uM ATP by radiometric scintillation counting analysis
[13] = biological target: Serine/threonine-protein kinase PAK 1 (Homo sapiens, UniProt Q13153); assay: Inhibition of recombinant human PAK1 (150 to end residues) using RRRLSFAEPG as substrate measured after 40 mins in presence of [gamma33P]ATP by radiometric scintillation counting analysis
[14] = biological target: Phosphorylase b kinase gamma catalytic chain, skeletal muscle/heart isoform (Homo sapiens, UniProt Q16816); assay: Inhibition of recombinant full-length human PhKgamma1 using KKLNRTLSFAEPG as substrate incubated for 40 mins in presence of [gamma33P]ATP by radiometric scintillation counting analysis
[15] = biological target: Serine/threonine-protein kinase 32B (Homo sapiens, UniProt Q9NY57); assay: Inhibition of recombinant human full length STK32B using casein as substrate incubated for 40 mins in presence of [gamma33P]ATP by radiometric scintillation counting analysis
[16] = biological target: Discoidin domain-containing receptor 2 (Homo sapiens, UniProt Q16832); assay: Inhibition of recombinant human DDR2 S642A mutant (467 to end residues) using KKSRGDYMTMQIG as substrate after 40 mins in presence of [gamma-33ATP] by radiometric scintillation counting analysis
[17] = biological target: Serine/threonine-protein kinase tousled-like 2 (Homo sapiens, UniProt Q86UE8); assay: Inhibition of recombinant human TLK2 (387 to end residues) using casein as substrate incubated for 40 mins in presence of [gamma33P]ATP by radiometric scintillation counting analysis
Ephrin type-A receptor 2 = Ephrin type-A receptor 2 (Homo sapiens, UniProt P29317); assay: Inhibition of recombinant human EphA2 (596 to 900 residues) using poly(Glu, Tyr) 4:1 as substrate after 40 mins in presence of [gamma-33ATP] by radiometric scintillation counting analysis
[18] = biological target: Serine/threonine-protein kinase 24 (Homo sapiens, UniProt Q9Y6E0); assay: Inhibition of recombinant human MST3 (1 to 304 residues) using ERMRPRKRQGSVR as substrate measured after 40 mins in presence of [gamma33P]ATP by radiometric scintillation counting analysis
TGF-beta receptor type-1 = TGF-beta receptor type-1 (Homo sapiens, UniProt P36897, T204D); assay: Inhibition of recombinant human TGFBR1 T204D mutant (200 to end residues) using casein as substrate incubated for 40 mins in presence of [gamma33P]ATP by radiometric scintillation counting analysis
[19] = biological target: cAMP-dependent protein kinase catalytic subunit beta (Homo sapiens, UniProt P22694); assay: Inhibition of recombinant full length human PKAcbeta using KEAKEKRQEQIAKR as substrate incubated for 40 mins in presence of [gamma33P]ATP by radiometric scintillation counting analysis
[20] = biological target: Mast/stem cell growth factor receptor Kit (Homo sapiens, UniProt P10721, D816V); assay: Inhibition of recombinant human C-Kit D816V mutant (544 to end residues) using poly(Glu, Tyr) 4:1 as substrate incubated 40 mins in presence of [gamma-33ATP] by radiometric scintillation counting analysis
[21] = biological target: Calcium/calmodulin-dependent protein kinase type II subunit delta (Homo sapiens, UniProt Q13557); assay: Inhibition of recombinant full length human CaMK2delta using calmodulin as substrate incubated for 40 mins in presence of [gamma-33ATP] by radiometric scintillation counting analysis
[22] = biological target: Mitogen-activated protein kinase kinase kinase 5 (Homo sapiens, UniProt Q99683); assay: Inhibition of human recombinant ASK1 (649 to 946 residues) using myelin as substrate incubated for 40 mins in presence of [gamma-33ATP] by radiometric scintillation counting analysis
[23] = biological target: Cyclin-dependent kinase 14/Cyclin-Y (Homo sapiens, UniProt O94921); assay: Inhibition of recombinant full length human CDK14/cyclinY in presence of [gamma-33ATP] by radiometric scintillation counting analysis; format: protein-complex assay

Ephrin type-A receptor 2, sequence (P29317 whole entry, the tested form may be a part): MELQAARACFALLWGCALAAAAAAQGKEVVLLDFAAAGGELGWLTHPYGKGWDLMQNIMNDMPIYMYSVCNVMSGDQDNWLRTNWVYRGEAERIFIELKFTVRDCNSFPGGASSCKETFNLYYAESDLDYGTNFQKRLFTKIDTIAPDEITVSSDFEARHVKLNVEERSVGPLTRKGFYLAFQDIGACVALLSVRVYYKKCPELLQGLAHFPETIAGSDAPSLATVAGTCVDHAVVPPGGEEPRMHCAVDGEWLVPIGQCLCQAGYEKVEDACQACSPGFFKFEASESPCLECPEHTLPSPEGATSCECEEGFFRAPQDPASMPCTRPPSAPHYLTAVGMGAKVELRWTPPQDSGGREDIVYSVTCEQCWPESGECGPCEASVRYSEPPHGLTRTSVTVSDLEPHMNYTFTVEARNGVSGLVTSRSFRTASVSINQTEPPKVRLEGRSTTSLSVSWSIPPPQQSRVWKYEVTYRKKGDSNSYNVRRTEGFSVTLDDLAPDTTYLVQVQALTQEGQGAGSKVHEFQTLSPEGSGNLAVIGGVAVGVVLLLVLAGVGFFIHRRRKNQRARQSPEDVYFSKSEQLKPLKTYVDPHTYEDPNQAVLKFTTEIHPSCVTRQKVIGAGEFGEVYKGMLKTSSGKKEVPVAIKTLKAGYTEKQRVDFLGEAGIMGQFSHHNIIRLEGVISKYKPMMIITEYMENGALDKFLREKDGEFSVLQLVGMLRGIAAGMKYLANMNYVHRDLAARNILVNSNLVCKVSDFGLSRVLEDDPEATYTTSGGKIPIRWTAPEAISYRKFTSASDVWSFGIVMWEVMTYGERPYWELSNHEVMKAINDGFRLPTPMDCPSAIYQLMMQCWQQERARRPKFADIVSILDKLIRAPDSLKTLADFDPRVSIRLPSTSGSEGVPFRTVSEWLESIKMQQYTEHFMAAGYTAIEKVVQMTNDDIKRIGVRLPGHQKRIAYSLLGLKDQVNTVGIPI
Cyclin-dependent kinase-like 2, sequence (Q92772 whole entry): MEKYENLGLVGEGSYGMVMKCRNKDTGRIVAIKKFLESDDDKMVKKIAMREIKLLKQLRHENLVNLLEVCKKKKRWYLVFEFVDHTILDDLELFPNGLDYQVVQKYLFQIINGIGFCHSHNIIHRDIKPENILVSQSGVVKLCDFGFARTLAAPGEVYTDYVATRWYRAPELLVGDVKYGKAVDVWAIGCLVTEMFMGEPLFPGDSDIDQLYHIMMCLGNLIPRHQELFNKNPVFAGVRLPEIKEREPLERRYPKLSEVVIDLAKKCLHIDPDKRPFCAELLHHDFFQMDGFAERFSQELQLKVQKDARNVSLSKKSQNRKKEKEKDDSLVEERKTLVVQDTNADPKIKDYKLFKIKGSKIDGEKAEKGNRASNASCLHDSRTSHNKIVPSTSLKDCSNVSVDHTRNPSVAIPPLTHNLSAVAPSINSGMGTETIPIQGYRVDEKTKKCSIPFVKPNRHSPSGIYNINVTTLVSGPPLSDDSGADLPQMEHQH
Mast/stem cell growth factor receptor Kit, sequence (P10721 26-976 D816V limits assumed): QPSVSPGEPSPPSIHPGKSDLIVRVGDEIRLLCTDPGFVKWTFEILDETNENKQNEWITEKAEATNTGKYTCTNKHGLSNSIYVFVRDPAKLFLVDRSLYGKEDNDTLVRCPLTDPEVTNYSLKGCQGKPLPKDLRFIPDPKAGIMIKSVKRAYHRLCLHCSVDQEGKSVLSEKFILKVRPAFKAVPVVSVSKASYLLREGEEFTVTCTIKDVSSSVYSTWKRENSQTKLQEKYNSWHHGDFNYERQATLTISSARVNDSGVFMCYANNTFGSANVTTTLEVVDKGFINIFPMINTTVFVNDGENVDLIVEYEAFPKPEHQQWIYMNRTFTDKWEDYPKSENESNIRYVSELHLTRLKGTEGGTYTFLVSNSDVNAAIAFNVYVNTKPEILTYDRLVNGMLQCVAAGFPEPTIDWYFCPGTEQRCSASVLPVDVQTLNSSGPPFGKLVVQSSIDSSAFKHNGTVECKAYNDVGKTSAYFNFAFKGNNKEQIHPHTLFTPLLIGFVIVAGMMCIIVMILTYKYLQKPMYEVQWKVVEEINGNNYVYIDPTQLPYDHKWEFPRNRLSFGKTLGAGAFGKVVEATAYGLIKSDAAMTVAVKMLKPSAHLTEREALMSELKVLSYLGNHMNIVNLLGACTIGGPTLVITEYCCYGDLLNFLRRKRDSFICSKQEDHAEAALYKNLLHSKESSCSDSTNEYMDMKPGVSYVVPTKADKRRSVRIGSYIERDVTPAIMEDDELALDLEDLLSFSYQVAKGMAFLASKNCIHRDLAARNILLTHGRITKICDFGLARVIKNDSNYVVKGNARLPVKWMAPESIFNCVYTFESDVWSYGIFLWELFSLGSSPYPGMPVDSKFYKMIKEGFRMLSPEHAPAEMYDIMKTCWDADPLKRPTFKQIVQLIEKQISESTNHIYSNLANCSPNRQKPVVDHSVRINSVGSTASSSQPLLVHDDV
Dual specificity protein kinase CLK4, sequence (Q9HAZ1 whole entry): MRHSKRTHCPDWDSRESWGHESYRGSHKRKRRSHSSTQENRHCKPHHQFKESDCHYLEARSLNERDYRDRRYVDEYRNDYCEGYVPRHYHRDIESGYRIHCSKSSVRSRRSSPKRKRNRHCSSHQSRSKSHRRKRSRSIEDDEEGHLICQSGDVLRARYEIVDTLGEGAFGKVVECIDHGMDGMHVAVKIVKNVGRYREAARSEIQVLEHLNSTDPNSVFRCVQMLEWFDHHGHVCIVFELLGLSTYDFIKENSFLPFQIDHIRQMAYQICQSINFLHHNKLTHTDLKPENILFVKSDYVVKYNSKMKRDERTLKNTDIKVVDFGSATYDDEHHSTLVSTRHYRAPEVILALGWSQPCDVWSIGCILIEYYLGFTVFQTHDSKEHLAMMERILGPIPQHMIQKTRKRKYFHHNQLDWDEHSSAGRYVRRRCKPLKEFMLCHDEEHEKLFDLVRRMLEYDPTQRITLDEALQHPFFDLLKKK
Serine/threonine-protein kinase 38-like, sequence (Q9Y2H1 whole entry): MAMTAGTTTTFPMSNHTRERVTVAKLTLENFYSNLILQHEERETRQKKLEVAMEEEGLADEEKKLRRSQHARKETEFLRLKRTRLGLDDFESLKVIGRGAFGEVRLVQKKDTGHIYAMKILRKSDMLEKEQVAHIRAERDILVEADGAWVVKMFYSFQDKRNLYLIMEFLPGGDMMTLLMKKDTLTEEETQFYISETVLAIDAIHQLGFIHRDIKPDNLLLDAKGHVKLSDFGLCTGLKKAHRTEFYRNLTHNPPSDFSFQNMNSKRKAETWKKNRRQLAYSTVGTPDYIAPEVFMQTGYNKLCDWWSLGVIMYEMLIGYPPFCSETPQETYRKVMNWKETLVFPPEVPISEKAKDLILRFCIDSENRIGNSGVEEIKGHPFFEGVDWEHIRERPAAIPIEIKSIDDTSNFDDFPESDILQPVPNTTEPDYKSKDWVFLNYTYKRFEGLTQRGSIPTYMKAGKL
Interferon-induced, double-stranded RNA-activated protein kinase, sequence (P19525 whole entry): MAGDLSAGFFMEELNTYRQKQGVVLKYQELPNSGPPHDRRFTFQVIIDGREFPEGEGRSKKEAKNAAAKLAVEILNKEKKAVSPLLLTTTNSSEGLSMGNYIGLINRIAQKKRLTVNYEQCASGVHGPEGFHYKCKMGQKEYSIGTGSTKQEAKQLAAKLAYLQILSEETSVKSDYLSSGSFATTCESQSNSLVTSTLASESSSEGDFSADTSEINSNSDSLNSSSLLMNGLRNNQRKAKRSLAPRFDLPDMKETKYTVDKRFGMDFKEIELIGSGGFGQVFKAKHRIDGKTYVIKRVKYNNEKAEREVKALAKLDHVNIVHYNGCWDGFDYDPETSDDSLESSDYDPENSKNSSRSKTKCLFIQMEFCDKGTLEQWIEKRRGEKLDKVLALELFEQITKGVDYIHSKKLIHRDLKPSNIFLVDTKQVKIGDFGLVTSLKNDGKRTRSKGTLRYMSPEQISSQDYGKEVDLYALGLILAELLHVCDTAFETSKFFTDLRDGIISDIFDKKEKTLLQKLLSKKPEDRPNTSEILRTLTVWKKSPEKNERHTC
RAF proto-oncogene serine/threonine-protein kinase, sequence (P04049 whole entry Y340D/Y341D): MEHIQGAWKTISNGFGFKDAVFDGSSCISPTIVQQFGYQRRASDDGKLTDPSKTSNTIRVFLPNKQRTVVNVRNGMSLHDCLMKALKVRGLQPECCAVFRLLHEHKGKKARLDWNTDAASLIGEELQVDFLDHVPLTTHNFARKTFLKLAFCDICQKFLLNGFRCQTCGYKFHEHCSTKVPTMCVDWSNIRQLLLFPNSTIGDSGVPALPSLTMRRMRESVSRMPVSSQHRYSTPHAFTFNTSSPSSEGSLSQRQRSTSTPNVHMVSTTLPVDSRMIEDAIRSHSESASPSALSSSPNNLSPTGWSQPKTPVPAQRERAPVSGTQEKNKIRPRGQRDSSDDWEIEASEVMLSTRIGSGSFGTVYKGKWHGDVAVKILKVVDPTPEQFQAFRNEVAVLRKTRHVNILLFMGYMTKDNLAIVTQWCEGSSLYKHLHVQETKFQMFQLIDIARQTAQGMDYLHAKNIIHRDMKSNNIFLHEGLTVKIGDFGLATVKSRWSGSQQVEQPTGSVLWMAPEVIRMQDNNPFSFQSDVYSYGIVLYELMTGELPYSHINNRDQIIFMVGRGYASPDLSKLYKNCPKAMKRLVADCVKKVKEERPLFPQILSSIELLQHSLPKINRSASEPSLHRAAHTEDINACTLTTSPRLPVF
Phosphorylase b kinase gamma catalytic chain, skeletal muscle/heart isoform, sequence (Q16816 whole entry, canonical isoform): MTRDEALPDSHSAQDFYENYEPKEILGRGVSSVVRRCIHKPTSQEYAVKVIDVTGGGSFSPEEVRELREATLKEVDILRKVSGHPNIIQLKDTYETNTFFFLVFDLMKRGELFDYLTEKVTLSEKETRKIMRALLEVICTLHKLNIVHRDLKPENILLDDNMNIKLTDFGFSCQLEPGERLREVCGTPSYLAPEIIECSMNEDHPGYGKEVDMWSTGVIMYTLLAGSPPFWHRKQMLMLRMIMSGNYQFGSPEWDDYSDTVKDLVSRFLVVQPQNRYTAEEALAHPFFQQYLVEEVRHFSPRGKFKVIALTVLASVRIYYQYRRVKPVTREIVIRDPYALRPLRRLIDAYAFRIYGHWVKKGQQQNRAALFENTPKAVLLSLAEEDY

Which IC50 [1] does the source give for CN(C)c1ccc(C(=O)Nc2cccc(NC(=O)COc3ccc4c(=O)ccoc4c3)c2)cc1 here?
The IC50 was over 10 µM.

And the IC50 [2]?
Its IC50 is over 10 µM.

And the IC50 (CDK18/Cyclin Y)?
The IC50 was over 10 µM.

And the solubility thermodynamic [3]?
The solubility thermodynamic was 0.634 µg/mL (≈ 1.39 µM).

And the IC50 [4]?
Its IC50 is over 10 µM.

What about the IC50 [5] of the same compound?
The IC50 was over 10 µM.

What about the IC50 [6] of the same compound?
Its IC50 is over 10 µM.

And the IC50 [7]?
The IC50 was over 10 µM.

What about the fraction unbound at 5 h, 1 µM [8] of the same compound?
Its fraction unbound at 5 h, 1 µM is 0.004.

What about the IC50 [9] of the same compound?
The IC50 was over 10 µM.

What about the IC50 [10] of the same compound?
The IC50 was over 10 µM.

What about the IC50 [11] of the same compound?
Its IC50 is over 10 µM.

And the IC50 [12]?
The IC50 was over 10 µM.

And the IC50 [13]?
Its IC50 is over 10 µM.

And the IC50 [14]?
The IC50 was over 10 µM.

And the IC50 [15]?
The IC50 was over 10 µM.

What about the IC50 [16] of the same compound?
Its IC50 is over 10 µM.

What about the IC50 [17] of the same compound?
Its IC50 is over 10 µM.

And the IC50 (Ephrin type-A receptor 2)?
Its IC50 is over 10 µM.

What about the IC50 [18] of the same compound?
The IC50 was over 10 µM.

And the IC50 (TGF-beta receptor type-1)?
The IC50 was over 10 µM.

What about the IC50 [19] of the same compound?
The IC50 was over 10 µM.

And the IC50 [20]?
The IC50 was over 10 µM.

What about the IC50 [21] of the same compound?
Its IC50 is over 10 µM.

And the IC50 [22]?
The IC50 was over 10 µM.

And the IC50 [23]?
Its IC50 is over 10 µM.
